Measured values as given in patent US9657003B2, “Androgen receptor modulating compounds” (ORION CORPORATION, priority 2009, dated 2017).

These compounds were tested on VCaP prostate cancer cell line (assay: Inhibition of mibolerone-induced VCaP cell proliferation (WST-1)). Settings: Homo sapiens, mibolerone-induced (usually 0.1 nM) proliferation, 4-5 days.
Assay type: cell-based
Protocol: The IC50 value of the test compound for inhibition of mibolerone-induced VCaP cell proliferation was measured.
Cell Proliferation Assays
The ability of test compounds to inhibit prostate, cancer cell growth was studied by measuring inhibition of cell proliferation using androgen-sensitive VCaP prostate cancer cell line. […] Cell proliferation was measured using WST-1 Cell Proliferation Assay (Roche).

SMILES	IC50
Cc1nc(C(=O)N[C@@H](C)Cn2ccc(-c3ccc(C#N)c(Cl)c3)n2)c[nH]1 [Example 248, (S)—N-{1-[3-(3-Chloro-4-cyanophenyl)-1H-pyrazol-1-yl]propan-2-yl}-2-methyl-1H-imidazole-4-carboxamide]	490 nM

These compounds were tested against human AR (Homo sapiens (Human), UniProt P10275) (assay: Agonism in AR overexpressing hAR/HEK293 cells, reporter gene assay). Settings: % of testosterone-induced AR activity at 10 μM concentration.
Sequence of human AR (P10275 whole entry): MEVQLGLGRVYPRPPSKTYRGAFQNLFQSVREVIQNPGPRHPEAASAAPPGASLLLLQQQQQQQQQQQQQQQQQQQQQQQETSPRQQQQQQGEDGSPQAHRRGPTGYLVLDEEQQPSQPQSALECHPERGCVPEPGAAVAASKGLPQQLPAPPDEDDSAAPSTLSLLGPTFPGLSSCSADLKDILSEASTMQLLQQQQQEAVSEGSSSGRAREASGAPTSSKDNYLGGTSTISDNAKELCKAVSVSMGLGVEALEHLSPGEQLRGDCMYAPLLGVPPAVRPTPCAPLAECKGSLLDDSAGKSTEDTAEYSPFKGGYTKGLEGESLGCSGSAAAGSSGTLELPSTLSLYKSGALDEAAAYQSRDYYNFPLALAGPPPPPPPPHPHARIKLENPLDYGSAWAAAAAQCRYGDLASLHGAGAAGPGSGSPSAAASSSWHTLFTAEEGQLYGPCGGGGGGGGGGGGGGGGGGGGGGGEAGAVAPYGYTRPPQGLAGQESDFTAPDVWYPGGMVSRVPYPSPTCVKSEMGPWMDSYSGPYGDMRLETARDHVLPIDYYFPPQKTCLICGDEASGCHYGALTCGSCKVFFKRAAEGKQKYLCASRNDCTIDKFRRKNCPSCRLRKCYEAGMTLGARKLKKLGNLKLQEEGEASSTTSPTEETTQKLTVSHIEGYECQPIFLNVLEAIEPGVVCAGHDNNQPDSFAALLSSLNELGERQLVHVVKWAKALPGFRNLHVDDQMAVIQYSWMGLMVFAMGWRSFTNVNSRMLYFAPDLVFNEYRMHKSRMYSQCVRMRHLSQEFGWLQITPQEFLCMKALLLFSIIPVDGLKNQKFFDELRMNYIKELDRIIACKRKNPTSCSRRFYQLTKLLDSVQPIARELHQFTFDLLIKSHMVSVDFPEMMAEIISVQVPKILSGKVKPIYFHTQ
Assay type: cell-based
Protocol: AR agonism of the test compound in AR overexpressing hAR/HEK293 cells was measured as % of testosterone-induced AR activity at 10 μM concentration,
Agonism of test compounds in AR overexpressing cells was measured by reporter gene assay in HEK293 cells stably transfected with an expression vector encoding full-length human AR and androgen responsive luciferase reporter gene construct. A clone expressing high levels of androgen receptor (5 times more than AR levels in AR-HEK293 cells) was selected to study agonism in AR overexpressing cells. To determine agonism, the cells were treated with increasing concentrations of the test compound. The final DMSO concentration was 1%. The test compounds were studied in triplicates and luciferase activity was determined as described above.

SMILES	Agonism in AR overexpressing cells (%)
O=C(NCCc1ccc(-c2ccc(Cl)c(Cl)c2)o1)c1cc(C(=O)N2CCOCC2)n[nH]1 [Example 8, N-(2-(5-(3,4-dichlorophenyl)furan-2-yl)ethyl)-3-(morpholine-4-carbonyl)-1H-pyrazole-5-carboxamide]	0%
Cc1cc(-c2ccn(C[C@H](C)NC(=O)c3cc(-c4ccco4)n[nH]3)n2)ccc1C#N [Example 32, (S)—N-(1-(3-(4-cyano-3-methylphenyl)-1H-pyrazol-1-yl)propan-2-yl)-3-(furan-2-yl)-1H-pyrazole-5-carboxamide]	39%
CC(=O)c1cc(C(=O)N[C@@H](C)Cn2ccc(-c3ccc(C#N)c(Cl)c3)n2)[nH]n1 [Example 34, (S)-3-acetyl-N-(1-(3-(3-chloro-4-cyanophenyl)-1H-pyrazol-1-yl)propan-2-yl)-1H-pyrazole-5-carboxamide]	39%
N#Cc1ccc(-c2ccn(CCNC(=O)c3cc(-c4cccnc4)n[nH]3)n2)cc1C#N [Example 52, N-(2-(3-(3,4-dicyanophenyl)-1H-pyrazol-1-yl)ethyl)-3-(pyridin-3-yl)-1H-pyrazole-5-carboxamide]	40%
CC(O)c1cc(C(=O)N[C@@H](C)Cn2ccc(-c3ccc(C#N)c(Cl)c3)n2)[nH]n1 (stereo partly drawn) [Example 56, N—((S)-1-(3-(3-chloro-4-cyanophenyl)-1H-pyrazol-1-yl)-propan-2-yl)-3-(1-hydroxyethyl)-1H-pyrazole-5-carboxamide]	27%
CCc1noc(C(=O)N[C@@H](C)Cn2ccc(-c3ccc(C#N)c(Cl)c3)n2)n1 [Example 91, (S)—N-(1-(3-(3-chloro-4-cyanophenyl)-1H-pyrazol-1-yl)propan-2-yl)-3-ethyl-1,2,4-oxadiazole-5-carboxamide]	18%
Cc1nc(-c2cc(C(=O)N[C@@H](C)Cn3ccc(-c4ccc(C#N)c(Cl)c4)n3)n[nH]2)cs1 [Example 94, (S)—N-(1-(3-(3-chloro-4-cyanophenyl)-1H-pyrazol-1-yl)propan-2-yl)-5-(2-methylthiazol-4-yl)-1H-pyrazole-3-carboxamide]	18%
Cc1noc(C(=O)N[C@@H](C)Cn2ccc(-c3ccc(C#N)c(Cl)c3)n2)n1 [Example 103, (S)—N-(1-(3-(3-chloro-4-cyanophenyl)-1H-pyrazol-1-yl)propan-2-yl)-3-methyl-1,2,4-oxadiazole-5-carboxamide]	19%
CC(O)c1cc(C(=O)N[C@@H](C)Cn2ccc(-c3ccc(C#N)c(Cl)c3)n2)no1 (stereo partly drawn) [Example 124, N—((S)-1-(3-(3-chloro-4-cyanophenyl)-1H-pyrazol-1-yl)propan-2-yl)-5-(1-hydroxyethyl)isoxazole-3-carboxamide]	5%
C[C@H](Cn1ccc(-c2ccc(C#N)c(Cl)c2)n1)NC(=O)c1csc(N2CCOCC2)n1 [Example 132, (R)—N-(1-(3-(3-chloro-4-cyanophenyl)-1H-pyrazol-1-yl)propan-2-yl)-2-morpholinothiazole-4-carboxamide]	21%
Cc1c(-c2ccn(C[C@H](C)NC(=O)c3csc(C(C)O)n3)n2)ccc(C#N)c1Cl (stereo partly drawn) [Example 186, N—((S)-1-(3-(3-chloro-4-cyano-2-methylphenyl)-1H-pyrazol-1-yl)propan-2-yl)-2-(1-hydroxyethyl)thiazole-4-carboxamide]	>20%
C[C@@H](Cn1ccc(-c2ccc(C#N)c(Cl)c2)n1)NC(=O)c1csc(-c2cn[nH]c2)n1 [Example 206, (S)—N-(1-(3-(3-chloro-4-cyanophenyl)-1H-pyrazol-1-yl)propan-2-yl)-2-(1H-pyrazol-4-yl)thiazole-4-carboxamide]	>20%
CC(=O)c1cc(C(=O)NC[C@H](C)n2ccc(-c3cc(F)c(C#N)c(F)c3)n2)[nH]n1 [Example 219, (S)-3-acetyl-N-(2-(3-(4-cyano-3,5-difluorophenyl)-1H-pyrazol-1-yl)propyl)-1H-pyrazole-5-carboxamide]	0%
C[C@H](CNC(=O)c1csc(CC#N)n1)n1ccc(-c2cc(F)c(C#N)c(F)c2)n1 [Example 222, (R)—N-(2-(3-(4-cyano-3,5-difluorophenyl)-1H-pyrazol-1-yl)propyl)-2-(cyanomethyl)thiazole-4-carboxamide]	20%
Cc1nc(C(=O)N[C@@H](C)Cn2ccc(-c3cc(F)c(C#N)c(Cl)c3)n2)c[nH]1 [Example 249, (S)—N-{1-[3-(3-Chloro-4-cyano-5-fluorophenyl)-1H-pyrazol-1-yl]propan-2-yl}-2-methyl-1H-imidazole-4-carboxamide]	34%
C[C@@H](Cn1ccc(-c2cc(F)c(C#N)c(Cl)c2)n1)NC(=O)c1cn2cccnc2n1 [Example 324, (S)—N-(1-(3-(3-chloro-4-cyano-5-fluorophenyl)-1H-pyrazol-1-yl)propan-2-yl)imidazo[1,2-a]pyrimidine-2-carboxamide]	16%
C[C@@H](Cn1ccc(-c2ccc(C#N)c(Cl)c2)n1)NC(=O)c1[nH]nc2c1COCC2 [Example 338, (S)—N-(1-(3-(3-chloro-4-cyanophenyl)-1H-pyrazol-1-yl)propan-2-yl)-2,4,6,7-tetrahydropyrano[4,3-c]pyrazole-3-carboxamide]	25%
